These are literature values, as cited in paper PMC9992518, “Structural basis of peptide recognition and activation of endothelin receptors” (Nature Communications, 2023).

One may read the Ki as the dissociation constant of the complex between target and ligand, obtained from inhibition or displacement.

Data set [1] has as its system ETAR.
Data set [2] concerns ETBR. On the set-up: method as in earlier work. The settings on record: ETBR activated by ET-3.
For data set [3], the target named is ETAR. The text has this:
(§1) S6c bears an identical substitution from K9 to E9 compared with s6b (Fig. 1a). The charge of the ninth residue has been thought to determine the ETR selectivity of s6c over s6b[33], supporting the importa ...
The source holds these as a separate data set.

For data set [4], the target named is ETBR.
Description: as §1

The test system of data set [5] is LgBiT. The following applies: NanoBiT complementary peptide. An excerpt:
NanoLuc Binary Technology (NanoBiT, Promega) is originally a structurally complementary reporter system to evaluate protein-protein interaction in cells. NanoBiT is composed of a large subunit (LgBiT, 18 kDa) and an 11 amino acid complementary peptide (SmBiT, peptide, […]) with low affinity for LgBiT, both of which are connected to two interacting target proteins of interest, respectively. When the two proteins interact, the two subunits assemble into an active enzyme and generate a bright luminescent signal in the presence of a substrate. To improve the homogeneity and stability o ...

With “ET-3: endothelin, 21-amino-acid peptide hormone”, the “fold weaker affinity for ETAR” value in data set [1] (ETAR, relative to ET-1 and ET-2) was 100 fold. Also, the “effect on ET-1-mediated effects upon ETBR activation (in words)” value in data set [2] is “can inhibit the ET-1-mediated effects”.

For Sarafotoxin s6c, the “ETBR selectivity (in words)” value in data set [1] (from reduced affinity for ETAR compared with s6b) is “substantial ETBR selectivity”.

Turning to “Succinyl-[Glu^9, Ala^11,15]-ET-1(8-21) [IRL1620]”, the Ki in data set [3] is 1900 nM; in data set [4] it was 0.016 nM.

Consider VSGWRLFKKIS [HiBiT], for which the “affinity for LgBiT (in words)” value in data set [5] is recorded as “high affinity”.

For VTGYRLFEEIL [SmBiT], the “affinity for LgBiT (in words)” value in data set [5] is on record as “low affinity”.
